Experimental data reported in patent US7176164B2, “1,3-selenazolin derivatives and process for preparing the same” (Gifu University, priority 2001, dated 2007).

Legend:
[1] = test system: human HT-1080 fibrosarcoma cells; assay: growth inhibitory action against human HT-1080 fibrosarcoma cells (crystal violet method); format: cell-based; details: HT-1080 cells; for IC50: Homo sapiens, 24 hours culture with test drug, DMEM/F12 with 0.1% bovine serum albumin; for growth inhibitory action on HT-1080 fibrosarcoma cells (in words): 24 hours, summary of Table 1
Protocol: The growth inhibitory action of the selenazolin derivatives of chemical formulas 4 through 12 against human HT-1080 fibrosarcoma cells was investigated. HT-1080 fibrosarcoma cells growing in Eagle's Minimum Essential Medium (EMEM) containing 10% fetal calf serum within an incubator having an atmosphere of 5% CO2 and 95% air maintained at a temperature of 37 degrees Celsius were inoculated into a 96-well plate at the rate of 1×10^4 cells/well. After 48 hours, the medium was replaced with Dulbecco's Modified Eagle's Medium (DMEM)/F12 medium containing 0.1% bovine serum albumin, and the test drugs at each concentration (0.1 μM, 100 μM) were added, followed by culturing for 24 hours. Growth inhibitory action on human HT-1080 fibrosarcoma cells was determined from the staining density following staining using the crystal violet method.

protein kinases = assay: simultaneous detection of the activity of a plurality of protein kinases on a single gel (lysate of v-src transformed NIH3T3 cells, labeled ATP, SDS-PAGE and autoradiography); format: biochemical; details: supernatant of v-src transformed NIH3T3 cells; relative to rottlerin, typically used as a protein kinase inhibitor
Protocol: Action relative to a plurality of protein kinases was investigated in accordance with the method for simultaneous detection of the activity of a plurality of protein kinases on a single gel as described in Anal. Biochem. 212:106–110, 1993.
More specifically, NIH3T3 cells transformed with v-src were disintegrated with a hypotonic buffer and denucleated by gentle centrifugation. Various types of […] (including 1 μM PMA (phorbolmyristate acetate), 20 μM cyclic adenosine-3′,5′-monophosphate (cAMP)) were then added to the centrifuged supernatant. Moreover, 3-isopropyl-2-isopropylimino-1,3-selenazolidin-4-one of chemical formula 4 and labeled adenosine triphosphate (ATP) were added and the mixture was allowed to react. After stopping the reaction, the phosphorylated protein was analyzed by SDS-PAGE and autoradiography.

Structure (SMILES) | IC50 [1] [µM] | inhibitory activity compared with rottlerin (protein kinases) [times] | growth inhibitory action on HT-1080 fibrosarcoma cells (in words) [1]
Cc1ccc(N=C2[Se]CC(=O)N2c2ccc(C)cc2)cc1 [Chemical Formula 11, 3-p-tolyl-2-p-tolylimino-1,3-selenazolidin-4-one] | > 100 | – | –
Cc1ccccc1N=C1[Se]CC(=O)N1c1ccccc1C [Chemical Formula 12, 3-o-tolyl-2-o-tolylimino-1,3-selenazolidin-4-one] | 75 | – | –
CC(C)N=C1[Se]C(C)C(=O)N1C(C)C (stereo not shown) [Chemical Formula 6, 3-isopropyl-2-isopropylimino-5-methyl-1,3-selenazolidin-4-one] | 89 | – | –
O=C1C[Se]C(=NC2CCCCC2)N1C1CCCCC1 [Chemical Formula 5, 3-cyclohexyl-2-cyclohexylimino-1,3-selenazolidin-4-one] | > 100 | – | –
CC(C)N=C1[Se]C(C)(C)C(=O)N1C(C)C [Chemical Formula 8, 3-isopropyl-2-isopropylimino-5,5-dimethyl-1,3-selenazolidin-4-one] | 98 | – | –
CC(C)N=C1[Se]CC(=O)N1C(C)C [Chemical Formula 4, 3-isopropyl-2-isopropylimino-1,3-selenazolidin-4-one] | 3.2 | ≥ 20 | potent growth inhibitory action
CCC1[Se]C(=NC(C)C)N(C(C)C)C1=O (stereo not shown) [Chemical Formula 7, 3-isopropyl-2-isopropylimino-5-ethyl-1,3-selenazolidin-4-one] | 2.5 | – | potent growth inhibitory action
CC(C)N=C1[Se]C(c2ccccc2)C(=O)N1C(C)C (stereo not shown) [Chemical Formula 9, 3-isopropyl-2-isopropylimino-5-phenyl-1,3-selenazolidin-4-one] | > 100 | – | –
CC(C)(C)N=C1[Se]CC(=O)N1C(C)(C)C [Chemical Formula 10, 3-t-butyl-2-t-butylimino-1,3-selenazolidin-4-one] | 4.5 | – | potent growth inhibitory action
